According to publication PMC11013136, “Design, Synthesis, and Anti-Leukemic Evaluation of a Series of Dianilinopyrimidines by Regulating the Ras/Raf/MEK/ERK and STAT3/c-Myc Pathways” (Molecules, 2024):

What was measured:
[1] = tested on: Jurkat cells; test: MTT cell viability assay, Jurkat cells; format: cell-based; settings: Homo sapiens, 48 h
Method: (§1) To estimate the effects of N-Phenyl-2-pyrimidinamine derivatives (Figure 1A) on HEL, K562, and Jurkat cells, we treated these cells with the compounds at different concentrations (1–20 μM) for 48 h. […] H-121 could selectively impair the proliferation of HEL and Jurkat cells. H-123 blocked the proliferation of the Jurkat cells. Those four compounds had no toxicity to the HL7702 cell line.
(§2) The logarithmically grown HEL cells were seeded in a 96-well culture plate at a density of 8000 cells per well and treated with different concentrations of H-120 (0.125 μM, 0.25 μM, 0.5 μM, and 1 μM) or 0.1% DMSO (control). After 24 h, 48 h, and 72 h treatment, the cells were added to 10 μL of MTT reagent for 4 h, and then added to 100 μL of triple cleavage fluid (SDS 10 g, isobutanol 5 mL and 10M HCl 0.1 mL, dissolved with ddH2O into 100 mL solution). After using a microscope to observe the completely dissolved crystal, the cells’ optical absorbance value was measured at 570 nm using an enzyme-labeling instrument (BioTek, Winooski, VT, United States). Inhibition rate = (OD value of DMSO group-OD value of experimental group)/OD value of DMSO group × 100%.

[2] = tested on: HL7702 cells; test: MTT cytotoxicity on normal hepatic cell line HL7702; format: cell-based; settings: Homo sapiens, L02, 48 h
Method: as §1
(§3) To validate the effects of H-120 on the viability of HEL cells, we treated the cells with the compound at different concentrations (1–20 μM) for 24 h, 48 h, and 72 h. […] However, H-120 was not cytotoxic on normal HL7702 (IC50 > 20 μM) (Figure 1B). The morphology of HEL cells treated with H-120 gradually crumpled and appeared fragmented (Figure 1E).
as §2

[3] = tested on: HEL cells; test: MTT cell viability assay, HEL cells; format: cell-based; settings: for IC50: Homo sapiens, HEL, 48 h
Method: as §1, §3, §2
The logarithmically grown HEL cells were collected and planted in 96-well plates at a density of 8000 cells per well. After the cell state was stabilized, HEL cells were treated with H-120 solution (0.125 μM, 0.25 μM, 0.5 μM, 1 μM), and then the OD value was measured at 570 nm in different periods of time. The growth curves were plotted.

[4] = tested on: K562 cells; test: MTT cell viability assay, K562 cells; format: cell-based; settings: Homo sapiens, 48 h
Method: as §1, §2

[5] = tested on: F-MuLV-induced leukemia mice; test: F-MuLV-induced erythroleukemia mice; format: in vivo, BALB/c mice; settings: for number of leukemic cells in the spleens (H&E staining): VCR 0.25 mg/kg, H-120 1-4 mg/kg intraperitoneally
Text: We used the F-MuLV-induced leukemia mice to determine the anti-leukemia activity of H-120. […] The effect of H-120 treatment is similar to that in the vincristine (VCR) treatment group (Figure 6A,C). […] The CD71 and Ter119 have been broadly used to reflect mice’s dynamic maturation of erythrocytes. We tested CD71 and Ter119 expression in spleen cells and bone marrow cells by using flow cytometry.
The NIH3T3 cells expressing the F-MuLV clone 57 vector were donated by Professor Ben-David Yaacov, Key Laboratory of Natural Product Chemistry, Chinese Academy of Sciences, Guizhou Province. In order to induce leukemia, BALB/c mice (male and females; Tongxin, Chongqing, China), aged one day, were administered a solitary intraperitoneal injection of F-MuLV. Then, infected neonates were weaned at 4 weeks and randomly divided into 6 groups: normal group (NC), model group (M), positive control group (VCR: 0.25 mg/kg), H-120 low dose group (H-120-L: 1 mg/kg), H-120 medium dose group (H-120-M: 2 mg/kg), and H-120 high dose group (H-120-H: 4 mg/kg). After 5 weeks of virus infection, mice were treated with H-120 intraperitoneally every other day for 3 weeks. The normal and model groups were given saline, and the control group was given vincristine intraperitoneally. Under the supervision of experienced staff, the leukemia mice were sacrificed humanely by cervical dislocation. Serum biochemical indexes of the mice were detected. The spleens of the mice were removed. A portion of the spleen was fixed in formaldehyde for 24 h, and paraffin was embedded and sliced. The effects of H-120 on the normal physiological structure of the spleen were observed by H&E staining. Then, part of the spleen tissue was ground and prepared into a single-cell suspension, which was stained with CD71, Ter119, CD4, CD8a, and B220 antibodies for 30 min, respectively. The expression of markers on the spleen cell surfaces of mice was analyzed by flow cytometry.

[6] = tested on: HEL cells; test: Western blotting of cell cycle, apoptosis, Ras/Raf/MEK/ERK and STAT3/c-Myc proteins; format: cell-based; settings: Western blot
Text: (§4) Cell cycle regulation is critical for cell differentiation and proliferation. To investigate whether H-120 affects the cell cycle of HEL, we treated HEL cells with various concentrations of H-120.
To study the effect of H-120 on apoptosis proteins, we treated HEL cells with various concentrations of H-120.
To assess whether the effect of H-120 on HEL cells is involved in the inactivation of Ras/Raf/MEK/ERK/MAPK signaling pathway, we tracked this pathway bottom-up in HEL cells treated with H-120 using Western blotting.
To examine the effect of H-120 on the p-STAT3 and c-Myc, we checked the p-STAT3 and c-Myc levels in HEL cells treated with H-120. […] STAT3 acts through its phosphorylation and enters nuclear. The nuclear–cytoplasmic separation experiment was conducted.
HEL cells were collected after 24 h of H-120 treatment and washed with PBS, and the supernatant was discarded. According to the instructions of the Nuclear and Cytoplasmic Protein Extraction Kit (Beyotime Biotechnology, Shanghai, China), we added cytoplasmic protein extraction reagent A equipped with PMSF (phenylmethanesulfonyl fluoride) and used vigorous vortexing at 2500 rpm for 5 s to suspend and disperse the cell precipitation entirely. After 15 min of an ice bath, we added cytoplasmic protein extraction reagent B. The sample was vigorously vortexed at 2500 rpm for 5 s, then centrifuged at 4 °C for 5 min at 12,000× g, and the supernatant was extracted to leave a precipitate. The supernatant was the cytoplasmic protein. For the precipitate, the […] protein extraction reagent equipped with PMSF was added immediately, mixed, and then placed on ice. The highest-speed vigorous vortex was performed for 20 s every 2 min for 30 min, followed by centrifugation at 12,000× g at 4 °C for 10 min. Finally, the supernatant was taken as the nuclear protein.
HEL cells after drug action were collected, added to and mixed with cell lysis buffer, and […] on ice for one hour before protein concentration was detected using a BCA (bicinchoninic acid) kit. Proteins (50 μg) were separated by sodium dodecyl sulfate-polyacrylamide gel electrophoresis and transferred to a PVDF (polyvinylidene fluoride) membrane ([…], Bio-Rad, Hercules, CA, USA) via wet transfer. Then, 5% bovine serum albumin closed the membrane for 1 h, and the membrane was washed three times with TBS (20 mM Tris-HCl) for 5 min each time. Membranes were allowed to incubate with the primary antibody overnight at 4 °C. The anti-rabbit antibody secondary antibody was incubated at room temperature for 2 h. Then, the membrane was washed with 1× TBST (20 mM Tris-HCl, 0.1% Tween 20) for 15 min. After washing, the fetal membrane was scanned with an infrared imaging scanner. β-actin was used as a loading control.

[7] = tested on: HEL cells; test: JC-1 mitochondrial membrane potential assay; format: cell-based; settings: 0.125-1 μM, 48 h, flow cytometry
Method: (§5) Apoptosis plays a crucial role in impairing cancer cell viability. To determine whether the H-120 inhibiting HEL cell growth is caused by apoptosis, we applied HEL cells with different concentrations of H-120. […] To explore the mechanism of apoptosis, we used JC-1 staining to detect the effect of H-120 on mitochondrial membrane potential. […] The results confirmed that H-120 can induce HEL cell apoptosis by impairing mitochondria.
Cells (2 × 10^5) were seeded in a 2 mL medium with different concentrations of H-120 (0.125 μM, 0.25 μM, 0.5 μM, 1 μM). After being treated with H-120 for 48 h, the cells were preincubated with JC-1 working solution for 20 min at 37 °C, 5% CO2. After incubation, the dye was removed, and the cells were washed two times with JC-1 [48].

[8] = tested on: HEL cells; test: Cell cycle analysis (PI, flow cytometry); format: cell-based; settings: 0.125-1 μM, 24 h
Method: as §4
(§6) For the apoptosis detection assay, the logarithmically grown HEL cells were treated with H-120 solution (0.125 μM, 0.25 μM, 0.5 μM, and 1 μM) for 24 h, 48 h, and 72 h. Subsequently, the cells were collected and rinsed three times with pre-cooled PBS. Based on the instruction of the Annexin V-FITC apoptosis detection kit, the cells were resuspended in 50 μL of 1 × binding buffer and stained for 15 minutes. Then, the apoptosis rate was determined using flow cytometry (ACEA NovoCyte, San Diego, CA, United States). For cell cycle analysis, HEL cells were treated with the different concentrations of H-120 (0.125 μM, 0.25 μM, 0.5 μM, 1 μM) for 24 h. Cells were collected, fixed with pre-cooled 70% ethanol, and kept at 4 °C for 4 h before being transferred to −20 °C overnight. Cells were stained with 0.5 mL of PI (propidium iodide, 50 µg/mL), RNase (5 µg/mL) inhibitor, and Triton × 100 (0.5 µg/mL) for 10 min at room temperature in the dark and then analyzed by flow cytometry.

[9] = tested on: HEL cells; test: Hoechst 33258 staining (DNA damage); format: cell-based; settings: 0.125-1 μM, 24 h
Method: as §4
After subjecting HEL cells to H-120 solution (0.125 μM, 0.25 μM, 0.5 μM, 1μM) for 24 h, the cells were collected, resuspended, and washed with pre-cooled PBS. Subsequently, the cells were fixed, stained, and washed according to the instructions provided by the Apoptosis-Hoechst 33258 Staining Kit. To prevent fluorescence interference, an appropriate volume of anti-fluorescence quenching sealing solution was added to the cells. The cells were then placed on a spare slide, covered with a coverslip, and immediately observed and photographed using a Nikonfluorescence microscope.

[10] = tested on: HEL cells; test: Annexin V-FITC/PI apoptosis detection by flow cytometry; format: cell-based; settings: 1 μM
Text: as §5
as §6, with “Cells were collected, fixed with pre-cooled 70% ethanol, and kept at 4 °C for 4 h before being transferred to −20 °C overnight.” left out

| Structure (SMILES) | IC50 [1] | IC50 [2] | IC50 [3] | IC50 [4] | number of leukemic cells in the spleens (H&E staining) ([5]; vs model group) | also measured |
| --- | --- | --- | --- | --- | --- | --- |
| C=CC(=O)Nc1ccc(Nc2ncc(C)c(Nc3sccc3C(=O)NC)n2)cc1 [H-121, 2-((2-((4-Acrylamidophenyl)amino)-5-methylpyrimidin-4-yl)amino)-N-methylthiophene-3-carboxamide] | 10.4 ± 0.238 µM | > 20 µM | 8.78 ± 0.45 µM | > 20 µM |  |  |
| CC[C@]1(O)C[C@H]2CN(CCc3c([nH]c4ccccc34)[C@@](C(=O)OC)(c3cc4c(cc3OC)N(C=O)[C@H]3[C@@](O)(C(=O)OC)[C@H](OC(C)=O)[C@]5(CC)C=CCN6CC[C@]43[C@@H]65)C2)C1 [VCR, Vincristine, reference compound] |  |  |  |  | decreased significantly |  |
| CNC(=O)c1ccccc1Nc1nc(Nc2ccc(Nc3c(NC45CC6CC(CC(C6)C4)C5)c(=O)c3=O)cc2)ncc1C(F)(F)F [H-122, 2-((2-((4-((2-(((1R,3R,5S)-Adamantan-1-yl)amino)-3,4-dioxocyclobut-1-en-1-yl)amino)phenyl)amino)-5-(trifluoromethyl)pyrimidin-4-yl)amino)-N-methylbenzamide] | 1.63 ± 0.28 µM | > 20 µM | 11.5 ± 0.53 µM | 16.3 ± 1.11 µM |  |  |
| CNC(=O)c1ccsc1Nc1nc(Nc2ccc(Nc3c(NC45CC6CC(CC(C6)C4)C5)c(=O)c3=O)cc2)ncc1C(F)(F)F [H-123, 2-((2-((4-((2-(((1R,3R,5S)-Adamantan-1-yl)amino)-3,4-dioxocyclobut-1-en-1-yl)amino)phenyl)amino)-5-(trifluoromethyl)pyrimidin-4-yl)amino)-N-methylthiophene-3-carboxamide] | 5.2 ± 1.17 µM | > 20 µM | > 20 µM | > 20 µM |  |  |
| C#CC(=O)Nc1ccc(Nc2ncc(C)c(Nc3sccc3C(=O)NC)n2)cc1 [H-120, 2-[5-Methyl-2-(4-propynoylamino-phenylamino)-pyrimidin-4-ylamino]-thiophene-3-carboxylic acid methylamide] | 0.665 ± 0.02 µM | > 20 µM | 0.148 ± 0.04 µM | 2.34 ± 0.22 µM | decreased significantly | effects on renal and cardiac functions (URA, CREA, UA, CK-MB) ([5]; erythroleukemia mice): no effects; proportions of CD4, CD8a and B220 cells in spleen ([5]; flow cytometry): increased significantly; mature erythrocytes CD71-Ter119+ in spleen cells and bone marrow cells ([5]; flow cytometry, vs model group): significantly increased; levels of liver index, ALT and AST ([5]; vs model group): significantly lower; spleen weight ([5]; vs model mice, H-120 1, 2, 4 mg/kg intraperitoneally every other day for 3 weeks): significantly declined; Bad, cleaved caspase-9, cleaved caspase-3 and cleaved PARP expression [6]: up-regulated considerably; Bcl-2 and Bcl-xL expression [6]: significantly down-regulated; expressions of Ras, phosphorylated Raf, MEK and ERK [6]: significantly reduce; levels of cell cycle proteins p-CDC25C and CyclinB1 ([6]; dose-dependent): decreased; p53 level ([6]; dose-dependent): up-regulated; p-STAT3 and c-Myc levels ([6]; dose-dependent): significantly down-regulated; relative value of the JC-1 monomer [7]: significantly increased; proportion of the G2/M phase in HEL cells [8]: increased; DNA damage (Hoechst staining) [9]: caused DNA damage in a dose-dependent manner; apoptosis rate of HEL cells ([10]; 48 h): 14.28%; apoptosis rate of HEL cells ([10]; 72 h): 36.45%; HEL cell proliferation ([3]; 24 h, 48 h and 72 h): prevented the HEL cell proliferation in a dose- and time-dependent manner |
